The results in this text go back to patent publication US10806694B2, “Nanoparticles for photodynamic therapy, X-ray induced photodynamic therapy, radiotherapy, radiodynamic therapy, chemotherapy, immunotherapy, and any combination thereof” (The University of Chicago, priority 2014, dated 2020).

Test [1] is described as follows: Singlet oxygen generation with Singlet Oxygen Sensor Green (SOSG) under LED irradiation. It is filed as physicochemical. The note with it: for k (fitting parameter for 1O2 generation curve): 0.1 W/cm^2, 650 nm LED for DBC-UiO and H2DBC, 640 nm for the others. Here is the method:
A light-emitting diode (LED) array with peak emission at 640 nm was used as the light source of singlet oxygen generation. The irradiance of LED is 100 mW/cm^2. Singlet oxygen sensor green (SOSG) reagent (Life Technologies, Carlsbad, Calif., United States of America) was employed for the detection of singlet oxygen. H2DBP and DBP-UiO samples were prepared in 5 μM solutions/suspensions in HBSS buffer (for DBP-UiO samples, the concentration was calculated as ligand equivalents). To 2 mL each of these solutions/suspensions, SOSG stock solution (5 μL at 5 mM) was added (final concentration=12.5 μM) before fluorescence measurement.
For a typical measurement, fluorescence intensity was acquired on a spectrofluorophotometer (RF-5301PC, Shimadzu Corporation, Kyoto, Japan) with excitation at 504 nm and emission at 525 nm (slit width 3 nm/5 nm for ex/em). Fluorescence was measured after irradiation by LED for 0 (as background), 10 s, 20 s, 30 s, 1 min, 1.5 min, 2 min, 2.5 min, 3 min, 3.5 min, 4 min, 4.5 min, 5 min, 6 min and 7 min.
Singlet oxygen generation efficiencies of H2DBP and DBP-UiO were determined using Singlet Oxygen Sensor Green (SOSG, Life Technologies). After exposure to a LED light source (peak emission at 640 nm, energy irradiance of 100 mW/cm^2), the […] reagent SOSG reacted with ^1O2 to generate green fluorescence which was quantified with a fluorimeter. The fluorescence intensity was plotted against irradiation time. […] The ^1O2 generation curve was fitted with the following equation: IF=A(1−e^−kt) (1) Where IF is fluorescence intensity and t represents irradiation time while A and k are fitting parameters (for detailed derivations, see SI). […]
Singlet Oxygen Sensor Green (SOSG) was employed to determine ^1O2 generation efficiencies of H2DBC and DBC-UiO. SOSG reacted with generated ^1O2 to give green fluorescence (λem=525 nm) that was quantified with a fluorometer. For comparison, ^1O2 generation efficiency of H2DBP, DBP-UiO and protoporphyrin IX (PpIX) were also determined. […]

Test [2] relates to CT26 cells. Kind of test: In vitro PDT cytotoxicity. It is filed as cell-based, murine. The note with it: with irradiation, LED 90 J/cm^2 (0.1 W/cm^2, 15 min), 640 or 650 nm. Here is the method:
The tumor cell uptake of NMOFs was evaluated by incubating CT26 cells with DBP-UiO or DBC-UiO at a Hf concentration of 50 μM for 4 h. […] The in vitro PDT efficacy of DBC-UiO against colon cancer cells was investigated and compared with DBP-UiO and their corresponding free ligands. […] DBP-UiO and […]: 640 nm; DBC-UiO and […]: 650 nm). DBC-UiO outperformed DBP-UiO by effectively killing both cancer cell lines at low NMOF and light doses.

Test [3] relates to CT26 cells. The experiment in a line: Apoptosis after PDT, Annexin V/dead cell kit, flow cytometry. In kind it is cell-based, murine. The note with it: 5 μM. Here is the method:
CT26 cells were incubated with 5 μM DBC-UiO or H2DBC followed by light irradiation at 0.1 W/cm^2 for 15 min (90 J/cm^2). The apoptosis induced by PDT treatment was determined with the Alexa Fluor 488 Annexin V/dead cell apoptosis kit by flow cytometry. […] Calreticulin (CRT) is a distinct biomarker exposed on the surface of cells undergoing ICD. The CRT expression was determined by flow cytometry and immunofluorescence to assess the ICD induced by DBC-UiO induced PDT. CT26 cells were treated with 5 μM DBC-UiO or H2DBC followed by light irradiation at 0.1 W/cm^2 for 15 min (90 J/cm^2). For flow cytometry analysis, cells were collected and stained with Alexa Fluor 488-CRT antibody and propidium iodide (PI). The fluorescence intensity of stained cells was gated on PI-negative cells. For immunostaining analysis, the cells were stained with AlexaFluor 488-CRT conjugated antibody and DAPI nuclei stain, and observed using confocal laser scanning microscopy (CLSM).
Background: Flow cytometry measures light scatter and fluorescence of single cells or particles in a stream.

The test system of test [4] is SQ20B subcutaneous xenograft murine models. The experiment in a line: In vivo PDT efficacy. Details: species or system mice. The note with it: 3.5 mg/kg intratumoral, 180 J/cm^2, single treatment. As for the experimental part:
The PDT efficacy of DBP-UiO was investigated using SQ20B subcutaneous xenograft murine models. Tumor bearing mice were established by subcutaneous inoculation of SQ20B cell suspension (5×10^6 cells per mouse) into the right flank region of 6-week athymic female nude mice. Three groups were included for comparison: PBS as control, H2DBP, and DBP-UiO. When tumors reached 100 mm^3, PBS, H2DBP, and DBP-UiO were intratumorally injected to animals at a DBP dose of 3.5 mg/kg. At 12 h post-injection, mice were anesthetized with 2% (v/v) isoflurane and tumors were irradiated with a 640 nm LED for 30 min. The light intensity was measured as 100 mW/cm^2, and the total light dose was 180 J/cm^2. Both injection and PDT were performed once.
To evaluate the therapeutic efficacy, tumor growth and body weight evolution were monitored. The tumor size was measured with a digital caliper every day. Tumor volumes were calculated as follows: (width^2×length)/2. Finally, all mice were sacrificed on Day 8, and the excised tumors were photographed and weighed. Tumors were fixed with formalin. Paraffin-embedded 5 μm tumor sections were stained with hematoxylin and erosin (H&E) and observed with light microscopy (Pannoramic Scan Whole Slide Scanner, Perkin Elmer, Waltham, Mass., United States of America).
In vivo experiments on SQ20B subcutaneous xenograft murine models were carried out. […]

For 5, 15-di(p-benzoato)chlorin [H2DBC], the “k (fitting parameter for 1O2 generation curve)” value in test [1] amounted to 0.25 min⁻¹. The same compound yielded an IC50 with CT26 cells [2] of 8.5 ± 0.1 µM. Besides, the apoptosis or necrosis entry with CT26 cells [3] (in the dark) is “No apoptosis or necrosis was observed”. Further, the apoptosis entry with CT26 cells [3] (light irradiation 90 J/cm^2) is “significant amounts of cells underwent apoptosis”.
Regarding `O=C(O)c1ccc(-c2c3nc(cc4ccc([nH]4)c(-c4ccc(C(=O)O)cc4)c4nc(cc5ccc2[nH]5)C=C4)C=C3)cc1` [H2DBP, 5,15-di(p-benzoato)porphyrin], the “k (singlet oxygen generation rate)” value in test [1] (5 μM in HBSS, 640 nm LED 100 mW/cm^2, listed as DBP) worked out at 0.0015 s⁻¹. The “k (fitting parameter for 1O2 generation curve)” value in test [1] worked out at 0.06 min⁻¹. The tumor growth entry in test [4] is “slightly suppressed after PDT, however accelerated after 5 days and exhibited no difference to the control group at the endpoint”. In addition, in the test on CT26 cells [2], it took 20 ± 3.1 µM to reach half-maximal inhibition (IC50).

In general, IC50 refers to the concentration that gives 50% inhibition. A lower IC50 goes with greater potency in that assay.
